Laboratory results reported in patent publication US4024277A, “Phosphoro-aminosulfenyl derivatives of benzofuran carbamates” (priority 1975, dated 1977).

How the values were obtained:
[1] = system: confused flour beetle; experiment: Seven-day residual insecticidal activity, confused flour beetle; format: in vivo, Tribolium confusum Jacquelin duVal; settings: Tribolium confusum, 48-hour exposure, read-out: % Kill, Confused Flour Beetle
Description: (§1) b. Seven-Day Residual Insecticidal Activity
(§2) In this test, a candidate insecticide, in solution, is applied to uninfested plants or containers by dipping or spraying. A seven-day holding period is necessary before infestation. A 48-hour exposure period is observed before evaluation of the tests. The insect species used in this type of test are the same as those listed under initial activity.

[2] = system: twospotted spider mite; experiment: Ovicidal activity against the twospotted spider mite; format: in vivo, Tetranychus urticae Koch; settings: Tetranychus urticae, eggs, 7 to 10 days, read-out: % Kill (ovicidal)
Procedure, shortened: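 Pinto bean seedlings carrying eggs laid by female mites over 3–4 hours were dipped in TEPP (936 ppm) to kill motile stages, then 2–3 hours later dipped in the candidate solution. Plants were held 7–10 days, and exposure ended when the untreated check reached complete hatch.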

[3] = system: pea aphid; experiment: Initial insecticidal activity, pea aphid; format: in vivo, Acyrthosiphon pisum (Harris); settings: Acyrthosiphon pisum, 48-hour exposure, read-out: % Kill, Pea Aphid
Procedure, shortened: (§3)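 Candidate insecticide in solution sprayed or dipped onto plants or containers, infested before or after treatment depending on species. Read after 48-hour exposure. Solvent-only control included.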

[4] = system: plum curculio; experiment: Initial insecticidal activity, plum curculio; format: in vivo, Conotrachelus nenuphar (Herbst); settings: Conotrachelus nenuphar, 48-hour exposure, read-out: % Kill, Plum Curculio
Procedure, shortened: as §3

[5] = system: confused flour beetle; experiment: Initial insecticidal activity, confused flour beetle; format: in vivo, Tribolium confusum Jacquelin duVal; settings: Tribolium confusum, 48-hour exposure, read-out: % Kill, Confused Flour Beetle
Procedure, shortened: as §3

[6] = system: Mexican bean beetle; experiment: Seven-day residual insecticidal activity, Mexican bean beetle; format: in vivo, Epilachna varivestis Mulsant; settings: Epilachna varivestis, 48-hour exposure, read-out: % Kill, Mexican Bean Beetle
Description: as §1, §2

[7] = system: Mexican bean beetle; experiment: Initial insecticidal activity, Mexican bean beetle; format: in vivo, Epilachna varivestis Mulsant; settings: Epilachna varivestis, 48-hour exposure, read-out: % Kill, Mexican Bean Beetle
Procedure, shortened: as §3

[8] = system: German cockroaches; experiment: Level II topical test, German cockroaches; format: in vivo, Blattella germanica (Linnaeus); settings: GC (male), one microgram topically per insect; for mortality at 0.001 mg: Blattella germanica, topical, read-out: % Kill; for % Knockdown: 30 minutes
Protocol: (§4) e. Insecticidal Activity Against House Flies and German Cockroaches
In a Level II test the compounds of this invention were tested for insecticidal activity against female house flies (resistant) and male German cockroaches. Ten insects were anesthetized with carbon dioxide and placed in a container for about 2 hours, during which time the insects recovered to normal activity. The container confining the insects is fitted with a plunger which is used to force the insects against a nylon mesh at one end of the container. One microliter of an acetone solution containing one microgram of the candidate insecticide was applied topically to each insect. The plunger was withdrawn and the insects were allowed to move freely about the container. Knockdown counts were recorded 10 minutes after treatment of house flies and 30 minutes after treatment of cockroaches.

[9] = system: Mexican bean beetle; experiment: Systemic insecticidal activity (soil/water), Mexican bean beetle; format: in vivo, Epilachna varivestis Mulsant; settings: Epilachna varivestis, 48-hour exposure, read-out: % Kill, Mexican Bean Beetle
Procedure, shortened: (§5)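 Compound solution applied to soil of uninfested pinto bean or broad bean seedlings, host chosen by insect species. Usually a 72-hour translocation period preceded infestation, then a 48-hour exposure before evaluation.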

[10] = system: house flies; experiment: Level I immersion test, house flies; format: in vivo, Musca domestica Linnaeus; settings: HF, 5 mg/milliliter; for % Knockdown: 10 minutes after immersion; for mortality at 5000 µg/mL: Musca domestica, after 18-24 hours, read-out: % Kill
Protocol: as §4
Compounds of this invention were tested in a Level I test at 5 mg. of active compounds/milliliter of a solution of 40% acetone -- 60% water.
In this test a group of ten house flies (Musca domestica Linnaeus) were completely immersed in 25 ml. of the insecticidal test solution. After 10 seconds of immersion, the test solution is removed. The house flies are then transferred to holding cages lines with paper toweling. In the case of the house flies, the knockdown counts were recorded 10 minutes after termination of the immersion. The percent kill was recorded after 18-24 hours.

[11] = system: plum curculio; experiment: Seven-day residual insecticidal activity, plum curculio; format: in vivo, Conotrachelus nenuphar (Herbst); settings: Conotrachelus nenuphar, 48-hour exposure, read-out: % Kill, Plum Curculio
Description: as §1, §2

[12] = system: twospotted spider mite; experiment: Seven-day residual insecticidal activity, twospotted spider mite; format: in vivo, Tetranychus urticae Koch; settings: Tetranychus urticae, 48-hour exposure, read-out: % Kill, Twospotted Spider Mite
Description: as §1, §2

[13] = system: large milkweed bug; experiment: Seven-day residual insecticidal activity, milkweed bug; format: in vivo, Oncopeltus fasciatus (Dallas); settings: Oncopeltus fasciatus, 48-hour exposure, read-out: % Kill, Milkweed Bug
Description: as §1, §2

[14] = system: pea aphid; experiment: Seven-day residual insecticidal activity, pea aphid; format: in vivo, Acyrthosiphon pisum (Harris); settings: Acyrthosiphon pisum, 48-hour exposure, read-out: % Kill, Pea Aphid
Description: as §1, §2

[15] = system: pea aphid; experiment: Systemic insecticidal activity (soil/water), pea aphid; format: in vivo, Acyrthosiphon pisum (Harris); settings: Acyrthosiphon pisum, 48-hour exposure, read-out: % Kill, Pea Aphid
Procedure, shortened: as §5

CC(C)OP(=O)(OC(C)C)N(C)SN(C)C(=O)Oc1cccc2c1OC(C)(C)C2 [6(c), 2,3-Dihydro-2,2-dimethyl-7-benzofuranyl [(N-diisopropoxyphosphinyl) (N-methyl)aminosulfenyl][methyl]carbamate]
mortality at 39 ppm [1]: 0% | mortality at 156 ppm [1]: 0% | mortality at 1250 ppm [1]: 0% | mortality at 156 ppm [2]: 0% | mortality at 1250 ppm [2]: 91% | mortality at 39 ppm [3]: 28% | mortality at 156 ppm [3]: 60% | mortality at 1250 ppm [3]: 100% | mortality at 39 ppm [4]: 0% | mortality at 156 ppm [4]: 45% | mortality at 1250 ppm [4]: 100% | mortality at 39 ppm [5]: 0% | mortality at 156 ppm [5]: 0% | mortality at 1250 ppm [5]: 18% | mortality at 39 ppm [6]: 6% | mortality at 156 ppm [6]: 38% | mortality at 1250 ppm [6]: 100% | mortality at 39 ppm [7]: 100% | mortality at 156 ppm [7]: 94% | mortality at 1250 ppm [7]: 100% | mortality at 0.001 mg [8]: 0% | % Knockdown [8]: 0% | mortality at 39 ppm [9]: 100% | mortality at 156 ppm [9]: 100% | % Knockdown [10]: 100% | mortality at 5000 µg/mL [10]: 100% | mortality at 39 ppm [11]: 0% | mortality at 156 ppm [11]: 0% | mortality at 1250 ppm [11]: 100% | mortality at 39 ppm [12]: 0% | mortality at 156 ppm [12]: 1% | mortality at 1250 ppm [12]: 0% | mortality at 39 ppm [13]: 5% | mortality at 156 ppm [13]: 25% | mortality at 1250 ppm [13]: 100% | mortality at 39 ppm [14]: 0% | mortality at 156 ppm [14]: 0% | mortality at 1250 ppm [14]: 5% | mortality at 39 ppm [15]: 100% | mortality at 156 ppm [15]: 100%

CCCOP(=O)(OCCC)N(C)SN(C)C(=O)Oc1cccc2c1OC(C)(C)C2 [2(d), 2,3-dihydro-2,2-dimethyl-7-benzofuranyl [(N-di-n-propoxyphosphinyl) (N-methyl)aminosulfenyl][methyl]carbamate]
mortality at 39 ppm [1]: 0% | mortality at 156 ppm [1]: 2% | mortality at 1250 ppm [1]: 38% | mortality at 156 ppm [2]: 2% | mortality at 1250 ppm [2]: 80% | mortality at 39 ppm [3]: 86% | mortality at 156 ppm [3]: 100% | mortality at 1250 ppm [3]: 100% | mortality at 39 ppm [4]: 0% | mortality at 156 ppm [4]: 20% | mortality at 1250 ppm [4]: 100% | mortality at 39 ppm [5]: 0% | mortality at 156 ppm [5]: 2% | mortality at 1250 ppm [5]: 72% | mortality at 39 ppm [6]: 50% | mortality at 156 ppm [6]: 76% | mortality at 1250 ppm [6]: 100% | mortality at 39 ppm [7]: 100% | mortality at 156 ppm [7]: 100% | mortality at 1250 ppm [7]: 100% | mortality at 0.001 mg [8]: 10% | % Knockdown [8]: 0% | mortality at 10 ppm [9]: 20% | mortality at 39 ppm [9]: 85% | mortality at 156 ppm [9]: 100% | % Knockdown [10]: 100% | mortality at 5000 µg/mL [10]: 100% | mortality at 39 ppm [11]: 0% | mortality at 156 ppm [11]: 5% | mortality at 1250 ppm [11]: 86% | mortality at 39 ppm [12]: 0% | mortality at 156 ppm [12]: 0% | mortality at 1250 ppm [12]: 1% | mortality at 39 ppm [13]: 56% | mortality at 156 ppm [13]: 100% | mortality at 1250 ppm [13]: 100% | mortality at 39 ppm [14]: 0% | mortality at 156 ppm [14]: 0% | mortality at 1250 ppm [14]: 56% | mortality at 10 ppm [15]: 0% | mortality at 39 ppm [15]: 11% | mortality at 156 ppm [15]: 80%

CCCOP(=O)(OCCC)N(CCC)SN(C)C(=O)Oc1cccc2c1OC(C)(C)C2 [3(c)]
mortality at 39 ppm [1]: 0% | mortality at 156 ppm [1]: 0% | mortality at 1250 ppm [1]: 78% | mortality at 156 ppm [2]: 0% | mortality at 1250 ppm [2]: 70% | mortality at 39 ppm [3]: 31% | mortality at 156 ppm [3]: 100% | mortality at 1250 ppm [3]: 100% | mortality at 39 ppm [4]: 5% | mortality at 156 ppm [4]: 5% | mortality at 1250 ppm [4]: 77% | mortality at 39 ppm [5]: 0% | mortality at 156 ppm [5]: 2% | mortality at 1250 ppm [5]: 55% | mortality at 39 ppm [6]: 28% | mortality at 156 ppm [6]: 92% | mortality at 1250 ppm [6]: 100% | mortality at 39 ppm [7]: 100% | mortality at 156 ppm [7]: 100% | mortality at 1250 ppm [7]: 100% | mortality at 0.001 mg [8]: 0% | % Knockdown [8]: 0% | mortality at 10 ppm [9]: 44% | mortality at 39 ppm [9]: 44% | mortality at 156 ppm [9]: 94% | % Knockdown [10]: 100% | mortality at 5000 µg/mL [10]: 100% | mortality at 39 ppm [11]: 5% | mortality at 156 ppm [11]: 10% | mortality at 1250 ppm [11]: 95% | mortality at 39 ppm [12]: < 1% | mortality at 156 ppm [12]: 0% | mortality at 1250 ppm [12]: 5% | mortality at 39 ppm [13]: 5% | mortality at 156 ppm [13]: 90% | mortality at 1250 ppm [13]: 100% | mortality at 39 ppm [14]: 0% | mortality at 156 ppm [14]: 0% | mortality at 1250 ppm [14]: 73% | mortality at 10 ppm [15]: 0% | mortality at 39 ppm [15]: 0% | mortality at 156 ppm [15]: 79%
